Experimental data: patent US10106526B2, “Inhibitors of cyclin-dependent kinase 7 (CDK7)” (SYROS PHARMACEUTICALS, INC., priority 2014, dated 2018)

What was measured:
[1] = molecular target: CDK7/Cyclin H/MAT1 trimeric complex (Homo sapiens, UniProt P50613); test: CDK7 kinase assay, Caliper/LabChip EZ Reader (Biortus Biosciences); assay type: biochemical; settings: CDK7/Cyclin H/MAT1 10 nM, ATP 2 mM, FAM-CDK7tide 2 μM, 30 min incubation, read-out: CDK7 Inhibition (IC50)
Experimental: Compounds of the invention were further assayed for CDK7 activity at Biortus Biosciences (Jiangyin, Jiangsu Province, P.R. of China) using a CDK7 kinase assay developed with a Caliper/LabChip EZ Reader (Perkin Elmer, Waltham, Mass.). […] The incubation period was chosen such that the total fraction of phosphorylated peptide product produced was <20% for the uninhibited kinase.

[2] = system: A673 cells; test: Inhibition of proliferation of A673 cells (CyQUANT, 72 hour); assay type: cell-based, human; settings: 72 hour proliferation
How it was run: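 Human Ewing's sarcoma A673 cells in DMEM + 10% FBS + 1 mM sodium pyruvate, 37 °C, 5% CO2, exposed to compounds from 4 μM to 126.4 pM (0.5 log dilutions) for 72 h. Proliferation read by CyQUANT; IC50 reported as binned categories.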

Sequence of CDK7/Cyclin H/MAT1 trimeric complex (P50613 whole entry): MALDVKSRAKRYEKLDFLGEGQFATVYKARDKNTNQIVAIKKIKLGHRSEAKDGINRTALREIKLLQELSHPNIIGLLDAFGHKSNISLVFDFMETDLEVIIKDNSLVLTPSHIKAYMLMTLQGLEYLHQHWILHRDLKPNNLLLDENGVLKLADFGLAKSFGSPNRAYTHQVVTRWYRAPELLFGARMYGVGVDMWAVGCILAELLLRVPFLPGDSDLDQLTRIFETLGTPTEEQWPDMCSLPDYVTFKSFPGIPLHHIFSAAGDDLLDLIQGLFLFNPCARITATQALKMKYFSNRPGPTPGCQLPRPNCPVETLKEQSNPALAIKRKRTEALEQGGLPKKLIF
Sequence of CDK7/Cyclin H/MAT1 trimeric complex (P51946 whole entry partner): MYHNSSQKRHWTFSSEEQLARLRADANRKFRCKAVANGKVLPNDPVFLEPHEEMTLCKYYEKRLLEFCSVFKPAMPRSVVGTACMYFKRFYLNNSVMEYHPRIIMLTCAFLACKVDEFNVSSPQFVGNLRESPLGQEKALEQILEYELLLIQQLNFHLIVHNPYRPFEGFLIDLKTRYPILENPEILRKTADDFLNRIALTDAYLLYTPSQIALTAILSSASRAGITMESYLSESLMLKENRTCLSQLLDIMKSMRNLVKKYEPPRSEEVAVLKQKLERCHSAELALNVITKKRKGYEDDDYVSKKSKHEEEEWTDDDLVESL
Sequence of CDK7/Cyclin H/MAT1 trimeric complex (P51948 whole entry partner): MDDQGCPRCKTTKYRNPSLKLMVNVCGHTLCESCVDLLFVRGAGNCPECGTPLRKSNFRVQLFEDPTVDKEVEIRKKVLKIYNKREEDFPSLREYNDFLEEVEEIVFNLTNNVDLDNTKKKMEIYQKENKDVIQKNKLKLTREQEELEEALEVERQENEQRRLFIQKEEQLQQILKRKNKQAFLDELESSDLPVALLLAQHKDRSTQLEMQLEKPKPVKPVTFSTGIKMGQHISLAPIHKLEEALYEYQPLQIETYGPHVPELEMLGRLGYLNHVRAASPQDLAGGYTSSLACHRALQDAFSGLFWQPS

Row | SMILES | IC50 [1] [nM] | IC50 [2] [nM] | IC50 ([2]; Homo sapiens) [nM]
1 | CCc1cnc(N[C@@H]2CCC[C@H](NC(=O)c3ccc(NC(=O)/C=C/CN(C)C)cn3)C2)nc1-c1c[nH]c2ccccc12 [Compound 262, 5-[[(E)-4-(dimethylamino)but-2-enoyl]amino]-N-[(1S,3R)-3-[[5-ethyl-4-(1H-indol-3-yl)pyrimidin-2-yl]amino]cyclohexyl]pyridine-2-carboxamide] | < 100 | – | < 500
2 | C=CC(=O)N1CCN([C@H]2CCC[C@@H](Nc3ncc(Cl)c(-c4n[nH]c5ccccc45)n3)C2)CC1 [compound 388] | 100 to 1000 | < 500 | –
3 | C=CC(=O)N1CCN([C@H]2CCC[C@@H](Nc3ncc(Cl)c(-c4c[nH]c5ccc(C)cc45)n3)C2)CC1 [Compound 340, 1-(4-((1S,3R)-3-(5-chloro-4-(5-methyl-1H-indol-3-yl)pyrimidin-2-ylamino)cyclohexyl)piperazin-1-yl)prop-2-en-1-One] | < 100 | – | < 500
4 | CN(C)C/C=C/C(=O)Nc1ccc(CN[C@@]2(C)CCC[C@@H](Nc3ncc(C(F)(F)F)c(-c4c[nH]c5ccccc45)n3)C2)nc1 [Compound 403, (E)-4-(dimethylamino)-N-[6-[[[(1S,3R)-3-[[4-(1H-indol-3-yl)-5-(trifluoromethyl)pyrimidin-2-yl]amino]-1-methylcyclohexyl]amino]methyl]-3-pyridyl]but-2-enamide] | < 100 | – | < 500
5 | CN(C)C/C=C/C(=O)Nc1ccc(CN(C)[C@H]2CCC[C@@H](Nc3ncc(Cl)c(-c4c[nH]c5ccccc45)n3)C2)nc1 [Compound 377, (E)-N-(6-((((1S,3R)-3-((5-chloro-4-(1H-indol-3-yl)pyrimidin-2-yl)amino)cyclohexyl)(methyl)amino)methyl)pyridin-3-yl)-4-(dimethylamino)but-2-enamide] | < 100 | – | < 500
6 | C=CC(=O)N1CCN([C@]23CCC[C@](Nc4ncc(Cl)c(-c5c[nH]c6ccccc56)n4)(CC2)C3)CC1 [Compound 408, 1-(4-((1R,5S)-5-(5-Chloro-4-(1H-indol-3-yl)pyrimidin-2-ylamino)bicyclo[3.2.1]octan-1-yl)piperazin-1-yl)prop-2-en-1-One] | < 100 | – | < 500
7 | CN(C)C/C=C/C(=O)Nc1ccc(C(=O)N[C@H]2CCC[C@@H](Nc3ncc(Cl)c(-c4cccc5[nH]ccc45)n3)C2)nc1 [Compound 264, N-((1S,3R)-3-((5-chloro-4-(1H-indol-4-yl)pyrimidin-2-yl)amino)cyclohexyl)-5-((E)-4-(dimethylamino)but-2-enamido)picolinamide] | < 100 | – | < 500
8 | CN(C)C/C=C/C(=O)Nc1ccc(C(=O)N[C@H]2CCC[C@@H](Nc3ncc(Cl)c(-c4cccc5c4ccn5C)n3)C2)nc1 [Compound 269, N-((1S,3R)-3-((5-chloro-4-(1-methyl-1H-indol-4-yl)pyrimidin-2-yl)amino)cyclohexyl)-5-((E)-4-(dimethylamino)but-2-enamido)picolinamide] | < 100 | – | < 500
9 | CN(C)C/C=C/C(=O)N1CCC[C@@H](NCc2ccc(Nc3ncc(Cl)c(-c4c[nH]c5ccccc45)n3)cc2)C1 [Compound 415, (R,E)-1-(3-((4-((5-chloro-4-(1H-indol-3-yl)pyrimidin-2-yl)amino)benzyl)amino)piperidin-1-yl)-4-(dimethylamino)but-2-en-1-One] | < 100 | – | < 500

Further lines, with some results ahead:

Row | IC50 [1] [nM] | SMILES | IC50 [2] [nM] | IC50 ([2]; Homo sapiens) [nM]
10 | < 100 | C=CC(=O)N1CCC(CNC2(C)CCCC(Nc3ncc(Cl)c(-c4c[nH]c5ccccc45)n3)C2)CC1 (centres unmarked) [Compound 268] | < 500 | –
11 | < 100 | C=CC(=O)NC1CCCN(C2CCCC(Nc3ncc(Cl)c(-c4c[nH]c5ccccc45)n3)C2)C1 (mixture of isomers) [Compound 256] | < 500 | –
12 | < 100 | CN(C)C/C=C/C(=O)N1CC(F)(F)C[C@H]1C(=O)N[C@H]1CCC[C@@H](Nc2ncc(C#N)c(-c3c[nH]c4ccccc34)n2)C1 [compound 396] | < 500 | –
13 | < 100 | C=CC(=O)N1CCN([C@H]2CCC[C@@H](Nc3ncc(Cl)c(-c4c[nH]c5ccccc45)n3)C2)C(=O)C1 [compound 410] | < 500 | –
